In ChEMBL document CHEMBL4507302, “Data for DCP probe TP-020” (2021):

Legend:
[1] = biological target: Megakaryocyte-associated tyrosine-protein kinase (Homo sapiens) (UniProt P42679); details: Compound concentration 1000.0 nM
[2] = biological target: Homeodomain-interacting protein kinase 4 (Homo sapiens) (UniProt Q8NE63); details: Compound concentration 1000.0 nM
[3] = biological target: Ephrin type-A receptor 3 (Homo sapiens) (UniProt P29320); details: Compound concentration 1000.0 nM
[4] = biological target: TRAF2 and NCK-interacting protein kinase (Homo sapiens) (UniProt Q9UKE5); details: Compound concentration 1000.0 nM
[5] = system: Tyrosine-protein kinase ABL1 (Homo sapiens), P00519 [Q252H]; details: Compound concentration 1000.0 nM
[6] = biological target: Ephrin type-A receptor 7 (Homo sapiens) (UniProt Q15375); details: Compound concentration 1000.0 nM
Ephrin type-A receptor 7 (Homo sapiens), sequence (Q15375 28-998 limits assumed): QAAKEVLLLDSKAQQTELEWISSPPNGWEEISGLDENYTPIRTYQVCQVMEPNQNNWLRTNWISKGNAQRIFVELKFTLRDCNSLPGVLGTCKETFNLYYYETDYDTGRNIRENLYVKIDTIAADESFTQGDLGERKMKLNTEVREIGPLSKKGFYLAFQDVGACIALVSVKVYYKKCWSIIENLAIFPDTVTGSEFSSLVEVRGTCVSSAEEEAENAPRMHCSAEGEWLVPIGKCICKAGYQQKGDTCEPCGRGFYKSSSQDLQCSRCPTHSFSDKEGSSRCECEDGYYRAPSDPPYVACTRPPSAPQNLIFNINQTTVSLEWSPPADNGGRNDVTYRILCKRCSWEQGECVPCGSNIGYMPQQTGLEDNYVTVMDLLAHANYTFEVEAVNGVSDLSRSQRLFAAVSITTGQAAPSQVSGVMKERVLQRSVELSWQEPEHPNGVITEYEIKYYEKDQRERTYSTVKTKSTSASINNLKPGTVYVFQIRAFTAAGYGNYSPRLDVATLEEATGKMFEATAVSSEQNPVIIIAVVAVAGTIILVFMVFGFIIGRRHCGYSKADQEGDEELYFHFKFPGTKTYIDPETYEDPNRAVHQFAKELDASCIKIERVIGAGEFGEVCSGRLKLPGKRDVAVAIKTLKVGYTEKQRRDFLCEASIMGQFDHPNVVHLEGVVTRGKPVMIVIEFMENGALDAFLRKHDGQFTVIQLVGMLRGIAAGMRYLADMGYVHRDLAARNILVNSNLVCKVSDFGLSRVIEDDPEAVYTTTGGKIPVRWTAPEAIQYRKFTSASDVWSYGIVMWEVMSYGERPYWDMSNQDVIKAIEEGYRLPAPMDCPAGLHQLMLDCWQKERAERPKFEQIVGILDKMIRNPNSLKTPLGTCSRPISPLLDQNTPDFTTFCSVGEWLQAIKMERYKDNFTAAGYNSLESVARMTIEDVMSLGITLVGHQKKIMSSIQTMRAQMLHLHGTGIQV

[7] = biological target: Cyclin-dependent kinase 18 (Homo sapiens) (UniProt Q07002); details: Compound concentration 1000.0 nM
[8] = biological target: Cyclin-dependent kinase 14 (Homo sapiens) (UniProt O94921); details: Compound concentration 1000.0 nM
[9] = biological target: D(1B) dopamine receptor (Homo sapiens) (UniProt P21918); details: Compound concentration 10.0 uM
[10] = biological target: Serine/threonine-protein kinase NIM1 (Homo sapiens) (UniProt Q8IY84); details: Compound concentration 1000.0 nM
[11] = system: Phosphatidylinositol 4,5-bisphosphate 3-kinase catalytic subunit alpha isoform (Homo sapiens), P42336 [E542K]; details: Compound concentration 1000.0 nM
Phosphatidylinositol 4,5-bisphosphate 3-kinase catalytic subunit alpha isoform (Homo sapiens), P42336 [E542K], sequence (P42336 whole entry E542K, canonical isoform): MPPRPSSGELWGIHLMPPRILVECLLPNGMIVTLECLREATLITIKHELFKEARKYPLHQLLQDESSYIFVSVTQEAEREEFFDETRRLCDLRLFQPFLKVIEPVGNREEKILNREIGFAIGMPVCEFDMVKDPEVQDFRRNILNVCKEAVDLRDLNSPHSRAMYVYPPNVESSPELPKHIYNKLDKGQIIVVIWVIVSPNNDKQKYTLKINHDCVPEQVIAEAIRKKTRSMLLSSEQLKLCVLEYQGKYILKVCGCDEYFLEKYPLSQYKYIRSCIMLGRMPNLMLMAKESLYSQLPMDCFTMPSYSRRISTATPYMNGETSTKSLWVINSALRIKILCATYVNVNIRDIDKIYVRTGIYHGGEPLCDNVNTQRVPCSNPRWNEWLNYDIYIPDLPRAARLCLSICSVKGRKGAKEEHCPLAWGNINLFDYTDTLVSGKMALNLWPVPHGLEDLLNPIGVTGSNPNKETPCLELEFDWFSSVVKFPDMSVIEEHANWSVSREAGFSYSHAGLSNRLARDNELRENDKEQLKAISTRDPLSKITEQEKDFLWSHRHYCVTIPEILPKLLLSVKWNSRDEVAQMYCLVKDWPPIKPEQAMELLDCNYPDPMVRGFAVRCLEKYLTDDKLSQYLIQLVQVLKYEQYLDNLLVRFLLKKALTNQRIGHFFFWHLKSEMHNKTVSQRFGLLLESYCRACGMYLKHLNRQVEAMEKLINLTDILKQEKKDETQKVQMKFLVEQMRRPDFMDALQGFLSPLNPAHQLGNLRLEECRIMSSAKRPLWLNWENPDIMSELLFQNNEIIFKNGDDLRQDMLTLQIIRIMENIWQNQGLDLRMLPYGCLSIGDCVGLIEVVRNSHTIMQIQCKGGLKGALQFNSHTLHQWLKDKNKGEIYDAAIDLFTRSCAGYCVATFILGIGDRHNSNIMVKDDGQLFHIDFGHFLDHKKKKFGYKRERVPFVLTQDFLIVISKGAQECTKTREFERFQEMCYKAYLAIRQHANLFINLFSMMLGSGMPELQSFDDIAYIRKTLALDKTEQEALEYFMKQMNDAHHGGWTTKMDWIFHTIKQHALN

[12] = biological target: Phosphatidylinositol 4-kinase beta (Homo sapiens) (UniProt Q9UBF8); details: Compound concentration 1000.0 nM
[13] = biological target: Cyclin-dependent kinase-like 1 (Homo sapiens) (UniProt Q00532); details: Compound concentration 1000.0 nM
[14] = biological target: Glycogen synthase kinase-3 alpha (Homo sapiens) (UniProt P49840); details: Compound concentration 1000.0 nM
[15] = biological target: 5'-AMP-activated protein kinase catalytic subunit alpha-1 (Homo sapiens) (UniProt Q13131); details: Compound concentration 1000.0 nM
[16] = system: Epidermal growth factor receptor (Homo sapiens), P00533 [UNDEFINED MUTATION]; details: Compound concentration 1000.0 nM
Epidermal growth factor receptor (Homo sapiens), P00533 [UNDEFINED MUTATION], sequence (P00533 whole entry, looked up, change not shown): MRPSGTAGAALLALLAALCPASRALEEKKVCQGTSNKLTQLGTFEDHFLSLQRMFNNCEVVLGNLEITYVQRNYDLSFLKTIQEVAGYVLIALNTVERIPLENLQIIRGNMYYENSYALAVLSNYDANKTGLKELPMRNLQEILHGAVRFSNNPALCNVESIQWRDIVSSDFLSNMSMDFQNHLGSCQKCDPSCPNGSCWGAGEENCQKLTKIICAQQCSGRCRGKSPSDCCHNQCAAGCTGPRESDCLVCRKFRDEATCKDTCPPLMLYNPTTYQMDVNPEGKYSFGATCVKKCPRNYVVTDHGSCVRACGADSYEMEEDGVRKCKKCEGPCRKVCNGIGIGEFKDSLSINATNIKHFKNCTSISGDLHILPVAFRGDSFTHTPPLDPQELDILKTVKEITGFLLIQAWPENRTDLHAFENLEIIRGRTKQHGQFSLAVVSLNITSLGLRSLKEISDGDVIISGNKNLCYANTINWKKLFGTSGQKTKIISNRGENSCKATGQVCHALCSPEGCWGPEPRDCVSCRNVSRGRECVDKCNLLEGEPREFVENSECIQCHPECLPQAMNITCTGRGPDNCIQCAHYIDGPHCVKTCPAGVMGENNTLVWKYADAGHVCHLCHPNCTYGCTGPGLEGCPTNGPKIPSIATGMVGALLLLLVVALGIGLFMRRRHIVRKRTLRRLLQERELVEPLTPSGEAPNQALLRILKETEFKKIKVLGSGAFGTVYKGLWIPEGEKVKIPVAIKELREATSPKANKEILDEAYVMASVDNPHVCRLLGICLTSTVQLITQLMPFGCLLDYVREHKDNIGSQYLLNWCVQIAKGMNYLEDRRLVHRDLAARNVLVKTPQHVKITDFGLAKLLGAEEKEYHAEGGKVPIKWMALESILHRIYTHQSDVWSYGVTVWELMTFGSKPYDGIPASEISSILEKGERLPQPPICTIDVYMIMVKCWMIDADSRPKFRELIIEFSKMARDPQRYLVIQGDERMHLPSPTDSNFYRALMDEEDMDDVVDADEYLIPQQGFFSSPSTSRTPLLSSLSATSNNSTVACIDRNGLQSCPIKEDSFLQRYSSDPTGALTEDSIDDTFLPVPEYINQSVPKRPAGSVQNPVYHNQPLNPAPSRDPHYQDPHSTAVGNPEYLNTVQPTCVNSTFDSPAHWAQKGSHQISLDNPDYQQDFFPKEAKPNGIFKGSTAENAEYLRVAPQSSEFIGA

[17] = biological target: MAP kinase-activated protein kinase 5 (Homo sapiens) (UniProt Q8IW41); details: Compound concentration 1000.0 nM
[18] = biological target: Death-associated protein kinase 3 (Homo sapiens) (UniProt O43293); details: Compound concentration 1000.0 nM
[19] = system: Receptor-type tyrosine-protein kinase FLT3 (Homo sapiens), P36888 [R834Q]; details: Compound concentration 1000.0 nM
[20] = biological target: Serine/threonine-protein kinase 32C (Homo sapiens) (UniProt Q86UX6); details: Compound concentration 1000.0 nM
[21] = biological target: Mitogen-activated protein kinase kinase kinase 12 (Homo sapiens) (UniProt Q12852); details: Compound concentration 1000.0 nM
[22] = biological target: Mitotic checkpoint serine/threonine-protein kinase BUB1 (Homo sapiens) (UniProt O43683); details: Compound concentration 1000.0 nM
[23] = system: Tyrosine-protein kinase ABL1 (Homo sapiens), P00519 [Y253F]; details: Compound concentration 1000.0 nM
[24] = biological target: Rho-associated protein kinase 2 (Homo sapiens) (UniProt O75116); details: Compound concentration 1000.0 nM
[25] = biological target: Glycogen synthase kinase-3 beta (Homo sapiens) (UniProt P49841); details: Compound concentration 1000.0 nM
[26] = biological target: Phosphorylase b kinase regulatory subunit alpha, liver isoform (Homo sapiens) (UniProt P46019); details: Compound concentration 1000.0 nM
[27] = system: Epidermal growth factor receptor (Homo sapiens), P00533 [UNDEFINED MUTATION]; details: Compound concentration 1000.0 nM; remark: listed apart in the source
[28] = biological target: Cyclin-dependent kinase 9 (Homo sapiens) (UniProt P50750); details: Compound concentration 1000.0 nM
[29] = biological target: Mitogen-activated protein kinase 8 (Homo sapiens) (UniProt P45983); details: Compound concentration 1000.0 nM
[30] = biological target: Mitogen-activated protein kinase kinase kinase kinase 5 (Homo sapiens) (UniProt Q9Y4K4); details: Compound concentration 1000.0 nM
[31] = biological target: Calcium/calmodulin-dependent protein kinase type 1B (Homo sapiens) (UniProt Q6P2M8); details: Compound concentration 1000.0 nM
[32] = biological target: Dual specificity mitogen-activated protein kinase kinase 5 (Homo sapiens) (UniProt Q13163); details: Compound concentration 1000.0 nM
[33] = biological target: Calcium/calmodulin-dependent protein kinase type II subunit delta (Homo sapiens) (UniProt Q13557); details: Compound concentration 1000.0 nM
[34] = biological target: Dual specificity testis-specific protein kinase 1 (Homo sapiens) (UniProt Q15569); details: Compound concentration 1000.0 nM
[35] = biological target: Serine/threonine-protein kinase Nek6 (Homo sapiens) (UniProt Q9HC98); details: Compound concentration 1000.0 nM
[36] = biological target: Muscle, skeletal receptor tyrosine-protein kinase (Homo sapiens) (UniProt O15146); details: Compound concentration 1000.0 nM
[37] = system: Fibroblast growth factor receptor 3 (Homo sapiens), P22607 [G697C]; details: Compound concentration 1000.0 nM
[38] = biological target: Cyclin-dependent kinase 11B (Homo sapiens) (UniProt P21127); details: Compound concentration 1000.0 nM
[39] = biological target: High affinity nerve growth factor receptor (Homo sapiens) (UniProt P04629); details: Compound concentration 1000.0 nM
[40] = biological target: Mu-type opioid receptor (Homo sapiens) (UniProt P35372); details: Compound concentration 10.0 uM
[41] = biological target: Tyrosine-protein kinase Fes/Fps (Homo sapiens) (UniProt P07332); details: Compound concentration 1000.0 nM
[42] = biological target: Eukaryotic translation initiation factor 2-alpha kinase 1 (Homo sapiens) (UniProt Q9BQI3); details: Compound concentration 1000.0 nM
[43] = biological target: Sodium-dependent serotonin transporter (Homo sapiens) (UniProt P31645); details: Compound concentration 10.0 uM
Sodium-dependent serotonin transporter (Homo sapiens), sequence (P31645 whole entry, looked up): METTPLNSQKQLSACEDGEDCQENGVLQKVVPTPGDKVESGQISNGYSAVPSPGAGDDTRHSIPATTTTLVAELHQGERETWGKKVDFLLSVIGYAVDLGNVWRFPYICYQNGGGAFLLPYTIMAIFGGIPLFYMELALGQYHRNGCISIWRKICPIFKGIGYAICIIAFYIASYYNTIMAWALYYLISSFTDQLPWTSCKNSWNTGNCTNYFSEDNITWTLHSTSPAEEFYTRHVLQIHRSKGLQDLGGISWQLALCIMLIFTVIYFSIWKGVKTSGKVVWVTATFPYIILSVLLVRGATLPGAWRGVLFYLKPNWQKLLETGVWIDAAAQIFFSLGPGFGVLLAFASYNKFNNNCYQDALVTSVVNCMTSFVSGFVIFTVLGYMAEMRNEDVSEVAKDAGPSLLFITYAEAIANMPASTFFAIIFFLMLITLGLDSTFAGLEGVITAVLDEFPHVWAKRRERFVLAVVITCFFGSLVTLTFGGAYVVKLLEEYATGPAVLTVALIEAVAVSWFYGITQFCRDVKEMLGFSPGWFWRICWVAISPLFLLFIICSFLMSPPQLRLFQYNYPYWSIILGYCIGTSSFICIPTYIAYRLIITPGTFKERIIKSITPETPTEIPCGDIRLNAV

[44] = biological target: Activin receptor type-1B (Homo sapiens) (UniProt P36896); details: Compound concentration 1000.0 nM
[45] = biological target: 5-hydroxytryptamine receptor 5A (Homo sapiens) (UniProt P47898); details: Compound concentration 10.0 uM

Ephrin type-A receptor 3 (Homo sapiens), sequence (P29320 whole entry): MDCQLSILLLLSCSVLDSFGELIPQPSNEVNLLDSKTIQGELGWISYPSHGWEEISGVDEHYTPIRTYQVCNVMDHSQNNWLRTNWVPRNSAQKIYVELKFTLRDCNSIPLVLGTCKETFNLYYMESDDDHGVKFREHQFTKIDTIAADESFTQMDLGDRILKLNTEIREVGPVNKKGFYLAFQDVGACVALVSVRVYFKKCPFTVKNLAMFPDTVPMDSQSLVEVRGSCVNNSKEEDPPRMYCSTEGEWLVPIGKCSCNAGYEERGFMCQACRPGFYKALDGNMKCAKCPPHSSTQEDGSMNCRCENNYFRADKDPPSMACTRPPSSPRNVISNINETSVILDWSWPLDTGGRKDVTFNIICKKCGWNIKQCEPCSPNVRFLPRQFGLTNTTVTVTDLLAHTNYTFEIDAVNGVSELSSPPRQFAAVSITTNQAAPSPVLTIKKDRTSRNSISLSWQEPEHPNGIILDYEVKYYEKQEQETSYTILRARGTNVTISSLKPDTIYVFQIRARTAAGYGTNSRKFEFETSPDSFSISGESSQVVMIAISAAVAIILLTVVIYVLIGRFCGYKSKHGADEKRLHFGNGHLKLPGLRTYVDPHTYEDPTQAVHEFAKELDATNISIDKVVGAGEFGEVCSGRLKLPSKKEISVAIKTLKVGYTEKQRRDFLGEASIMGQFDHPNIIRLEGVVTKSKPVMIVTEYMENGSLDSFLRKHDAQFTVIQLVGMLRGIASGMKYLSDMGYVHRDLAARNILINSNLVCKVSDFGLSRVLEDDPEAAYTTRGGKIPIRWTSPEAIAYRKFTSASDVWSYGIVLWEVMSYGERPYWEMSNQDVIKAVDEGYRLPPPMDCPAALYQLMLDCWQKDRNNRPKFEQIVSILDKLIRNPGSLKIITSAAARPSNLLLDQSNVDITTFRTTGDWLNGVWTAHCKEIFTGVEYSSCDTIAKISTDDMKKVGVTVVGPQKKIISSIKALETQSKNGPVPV

Cn1nc(C(F)(F)F)cc1-c1cnc(N2CCc3cc(S(=O)(=O)Nc4c(F)cc(Cl)cc4F)cc(N4CCCC4=O)c32)nc1 [TP-020]
inactive: residual activity [1] 91% | residual activity [2] 100% | residual activity [3] 94% | residual activity [4] 100% | residual activity [5] 99% | residual activity [6] 78% | residual activity [7] 100% | residual activity [8] 100% | inhibition [9] 42.5% | residual activity [10] 80% | residual activity [11] 85% | residual activity [12] 77% | residual activity [13] 77% | residual activity [14] 95% | residual activity [15] 98% | residual activity [16] 100% | residual activity [17] 95% | residual activity [18] 97% | residual activity [19] 97% | residual activity [20] 100% | residual activity [21] 72% | residual activity [22] 87% | residual activity [23] 95% | residual activity [24] 85% | residual activity [25] 100% | residual activity [26] 96% | residual activity [27] 100% | residual activity [28] 100% | residual activity [29] 100% | residual activity [30] 88% | residual activity [31] 80% | residual activity [32] 83% | residual activity [33] 99% | residual activity [34] 86% | residual activity [35] 100% | residual activity [36] 87% | residual activity [37] 100% | residual activity [38] 100% | residual activity [39] 69% | inhibition [40] 9.44% | residual activity [41] 100% | residual activity [42] 100% | inhibition [43] 0.95% | residual activity [44] 96% | inhibition [45] 7.89%

Nc1cnc(N2CCc3cc(S(=O)(=O)Nc4c(F)cc(Cl)cc4F)cc(N4CCCC4=O)c32)nc1
inactive: residual activity [1] 100% | residual activity [2] 100% | residual activity [3] 78% | residual activity [4] 100% | residual activity [5] 98% | residual activity [6] 85% | residual activity [7] 100% | residual activity [8] 100% | inhibition [9] 7.88% | residual activity [10] 100% | residual activity [11] 72% | residual activity [12] 93% | residual activity [13] 85% | residual activity [14] 100% | residual activity [15] 100% | residual activity [16] 100% | residual activity [17] 92% | residual activity [18] 83% | residual activity [19] 77% | residual activity [20] 100% | residual activity [21] 100% | residual activity [22] 100% | residual activity [23] 94% | residual activity [24] 100% | residual activity [25] 100% | residual activity [26] 100% | residual activity [27] 71% | residual activity [28] 100% | residual activity [29] 78% | residual activity [30] 73% | residual activity [31] 67% | residual activity [32] 84% | residual activity [33] 100% | residual activity [34] 100% | residual activity [35] 100% | residual activity [36] 100% | residual activity [37] 89% | residual activity [38] 100% | residual activity [39] 100% | inhibition [40] -1.31% | residual activity [41] 100% | residual activity [42] 94% | inhibition [43] 9.34% | residual activity [44] 96% | inhibition [45] -4.87%
